From patent publication US9440943B2, “Tricyclic sulfone compounds and methods of making and using same” (Zafgen, Inc., priority 2012, dated 2016)

Biological target: T1, Human recombinant MetAP2 (Homo sapiens, UniProt P50579)
T1 construct: made in house; host or cells: Sf9 insect cells
Assay: recombinant human MetAP2 inhibition assay (MAS substrate, amino acid oxidase/Amplex red fluorescence)
Format: biochemical
Conditions: manganese enzyme, 30 minutes at 25° C., pH 7.5, 0.75 mM MAS substrate, 1% DMSO
Method: Compounds are tested for their capacity to inhibit recombinant human MetAP2 activity using the following assay.
Human recombinant MetAP2 expressed in Sf9 cells followed by affinity purification and EDTA treatment to remove endogenous active site cation was dialysed against MnCl2 to produce the manganese enzyme used in the assay. The assay was carried out for 30 minutes at 25° C. in 50 mM HEPES buffer containing 100 mM NaCl, at pH 7.5. The presence of 0.75 mM Methionine-Alanine-Serine (MAS) substrate and 50 μg/mL amino acid oxidase using a dilution of purified MetAP2 gives >3-fold signal:noise. Cleavage of the substrate by MetAP2 and oxidation of free methionine by amino acid oxidase was detected and quantified using fluorescence generated by Amplex red (10-acetyl-3,7-dihydroxyphenoxazine) in combination with horseradish peroxidase which detects H2O2 released during the oxidation step. The fluorescent signal was detected using a multiwell fluorimeter. Compounds were diluted in DMSO prior to addition to assay buffer, the final DMSO concentration in the assay being 1%.
The IC50 is defined as the concentration at which a given compound achieves 50% inhibition of control. IC50 values are calculated using the XLfit software package (version 2.0.5).

T1 sequence (P50579 whole entry): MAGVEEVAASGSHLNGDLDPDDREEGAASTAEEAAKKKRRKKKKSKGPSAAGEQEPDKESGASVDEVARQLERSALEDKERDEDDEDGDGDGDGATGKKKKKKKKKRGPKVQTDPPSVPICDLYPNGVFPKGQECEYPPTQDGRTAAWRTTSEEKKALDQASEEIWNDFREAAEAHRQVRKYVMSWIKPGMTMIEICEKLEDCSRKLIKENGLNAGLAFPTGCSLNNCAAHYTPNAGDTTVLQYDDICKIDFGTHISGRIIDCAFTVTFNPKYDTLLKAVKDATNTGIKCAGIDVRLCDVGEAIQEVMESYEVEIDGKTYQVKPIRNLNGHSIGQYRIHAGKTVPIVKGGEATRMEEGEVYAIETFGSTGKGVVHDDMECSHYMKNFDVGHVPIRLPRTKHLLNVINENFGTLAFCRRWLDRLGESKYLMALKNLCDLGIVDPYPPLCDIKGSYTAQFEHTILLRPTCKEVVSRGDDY

| SMILES | IC50 |
| --- | --- |
| CCN(CC)C/C=C\c1cc(F)ccc1S(=O)(=O)Cc1ccc2c(c1C(=O)O)OC[C@H]1C[C@@H]21 (racemic) [Example 1, Cis-(1aRS,7bSR)-5-[2-((Z)-3-diethylaminoprop-1-enyl)-4-fluoro-benzenesulfonylmethyl]-1,1a,2,7b-tetrahydrocyclopropa[c]chromene-4-carboxylic acid] | > 100 nM |
| CCN(CC)C/C=C\c1cc(F)ccc1S(=O)(=O)Cc1ccc2c(c1C(=O)O)OC[C@@H]1C[C@H]21 [Example 2] | > 100 nM |
